{
  "source": "patent US9989535B2",
  "about": "“Methods and reagents for analyzing protein-protein interfaces” (Warp Drive Bio, Inc., priority 2015, dated 2018)",
  "key": {"FKBP12-PTP1BS187C": {"target": "T1, FKBP12-PTP1BS187C (Homo sapiens, UniProt P18031+P62942, C121S/C32S/C92V/S187C)", "T1 construct": "residues 1-293 containing C32S/C92V/C121S/S187C; made in house", "T1 sequence (P18031 1-293 C32S/C92V/C121S/S187C limits assumed)": "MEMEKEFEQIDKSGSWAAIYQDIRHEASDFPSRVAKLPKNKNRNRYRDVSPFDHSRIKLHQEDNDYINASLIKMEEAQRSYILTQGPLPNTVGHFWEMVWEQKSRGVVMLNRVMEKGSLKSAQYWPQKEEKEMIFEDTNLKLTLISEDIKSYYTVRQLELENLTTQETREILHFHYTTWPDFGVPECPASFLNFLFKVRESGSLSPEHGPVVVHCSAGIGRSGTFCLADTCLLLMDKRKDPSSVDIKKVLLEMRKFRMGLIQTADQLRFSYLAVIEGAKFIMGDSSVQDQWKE", "T1 sequence (P62942 whole entry, the tested form may be a part)": "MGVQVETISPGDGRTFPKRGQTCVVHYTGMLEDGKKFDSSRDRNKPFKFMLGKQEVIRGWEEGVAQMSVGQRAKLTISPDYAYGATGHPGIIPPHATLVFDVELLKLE", "experiment": "Crystal structure of FKBP12-C3SLF-PTP1BS187C ternary complex", "method": "Experimental Protocol: […] and FKBP12 were added to PTP1B[…] lite at 3:1 molar excess in 12.5 mM HEPES pH 7.4, 75 mM NaCl buffer, 4% DMSO, and incubated 36-72 hours at 4° C. Pure complex was isolated by size exclusion chromatography on a Superdex 75 column in 12.5 mM HEPES pH 7.4 and 75 mM NaCl. Purified complex (at 15 mg/ml) was subjected to crystallization screening at 20° C. using sitting drop vapor diffusion method. Crystals were grown in a well solution containing 0.2 M Magnesium Acetate, 20% w/v PEG 3350. For data collection, crystals were transferred to a solution containing mother liquor supplemented with 25% PEG400, and then frozen in liquid nitrogen. Diffraction datasets were collected at the Advanced Photon Source (APS) and processed with the XDS program. Molecular replacement solutions were obtained using the program PHASER in the CCP4 suite, using the published structure of FKBP12 (PDB-ID 2PPN) and PTP1B (PDB-ID 2NT7) as search models. Subsequent model building and refinement were performed according to standard protocols with the software packages CCP4 and COOT."}, "PTP1BS187C lite/FKBP12": {"target": "T2, PTP1BS187C lite/FKBP12 (Homo sapiens, UniProt P18031+P62942, C121S/C32S/C92V/S187C)", "T2 construct": "residues 1-293 containing C32S/C92V/C121S/S187C; made in house", "T2 sequence (P18031 1-293 C32S/C92V/C121S/S187C limits assumed)": "as the sequence (P18031 1-293 C32S/C92V/C121S/S187C limits assumed) above", "T2 sequence (P62942 whole entry, the tested form may be a part)": "as the sequence (P62942 whole entry, the tested form may be a part) above", "experiment": "Ternary complex formation by SEC and SDS-PAGE", "type": "binding", "conditions": "SEC profile and SDS-PAGE of elution peaks", "method": "A 1:2:2 molar ratio of compound, presenter protein, and target protein are mixed together in 12.5 mM HEPES pH 7.4, 75 mM NaCl buffer containing 2% DMSO. The reaction is incubated at 37° C. for 30 min, followed by overnight incubation at room temperature. Pure complex is isolated by Size Exclusion Chromatography (SEC) purification. The reaction mixture is directly injected on a Superdex 75 column (CV 120 mL) pre-equilibrated with buffer containing 12.5 mM HEPES pH 7.4, 75 mM NaCl. Complex elutes at a higher molecular weight than unreacted target protein and presenter protein. To confirm presence of complex in the elution peak, samples are assessed by SDS-PAGE.\nExperimental Protocol: A 1:3:3 molar ratio of C3-SLF, FKBP12, and PTP1BS187C lite are mixed together in 12.5 mM HEPES pH 7.4, 75 mM NaCl buffer containing 4% DMSO. The reaction is incubated at 37° C. for 30 min, followed by overnight incubation at room temperature. Pure complex is isolated by Size Exclusion Chromatography (SEC) purification. The reaction mixture is directly injected on a Superdex 75 column (CV 120 mL) pre-equilibrated with buffer containing 12.5 mM HEPES pH 7.4, 75 mM NaCl. […] To confirm the presence of PTP1BS187C lite and FKBP12 in the elution peak, samples are also assessed by SDS-PAGE. […]"}, "MCL1S245C/FKBP52": {"target": "MCL1S245C/FKBP52 (Homo sapiens, UniProt Q02790+Q07820, C286S/S245C)", "sequence (Q07820 172-327 S245C/C286S)": "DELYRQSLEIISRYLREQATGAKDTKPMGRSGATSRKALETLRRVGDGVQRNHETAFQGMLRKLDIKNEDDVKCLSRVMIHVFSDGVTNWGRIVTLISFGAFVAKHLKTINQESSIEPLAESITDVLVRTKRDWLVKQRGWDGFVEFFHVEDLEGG", "sequence (Q02790 1-140)": "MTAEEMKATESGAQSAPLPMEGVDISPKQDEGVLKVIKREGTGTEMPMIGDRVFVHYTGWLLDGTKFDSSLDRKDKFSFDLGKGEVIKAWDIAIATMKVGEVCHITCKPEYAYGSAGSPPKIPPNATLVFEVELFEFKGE", "experiment": "Crystal structure of MCL1S245C/C3SLF/FKBP52 ternary complex", "conditions": "3.0 Å", "method": "Experimental Protocol: […] and FKBP52 were mixed with MCL1[…] lite at 3:1 molar excess in 12.5 mM HEPES pH 7.4, 75 mM NaCl buffer, 2% DMSO, and incubated 24-48 hours at 4° C. Pure complex was isolated by size exclusion chromatography on a Superdex 75 column in 12.5 mM HEPES pH 7.4 and 75 mM NaCl. Purified complex (at 15 mg/ml) was subjected to crystallization screening at 20° C. using sitting drop vapor diffusion method. Crystals were grown in a well solution containing 2.1 M Malic acid. For data collection, crystals were transferred to a solution containing mother liquor supplemented with 20% glycerol, and then flash-frozen in liquid nitrogen. 3.0 Å resolution diffraction dataset was measured at the Advanced Photon Source (APS) and processed with the XDS program. Molecular replacement solutions were obtained using the program PHASER in the CCP4 suite, using the published structure of FKBP52 (PDB-ID 1N1A) and […] (PDB-ID 3MK8) as search models. Subsequent model building and refinement were performed according to standard protocols with the software packages CCP4 and COOT."}, "KRASGTP/G12C [1]": {"target": "T3, KRASGTP/G12C (Homo sapiens, UniProt P01116+P62942, G12C)", "T3 construct": "KRASGTP/G12C (in-house, residues 1-169); made in house", "experiment": "Disulfide cross-linking efficiency by mass spectrometry, with or without FKBP12", "type": "binding", "conditions": "2 μM KRAS, 10 μM ligand, 4 hours RT, MS", "method": "Experimental protocol: In order to follow the kinetics of disulfide crosslinking reactions, Agilent 6230 TOF-LC/MS and Agilent 1260 HPLC instruments employing a AdvanceBio RP-mAb C4 column (2.1×100 mm, 3.5 μm) and equipped with an auto-sampler were used. HPLC grade acetonitrile and water (each containing 1.0 mM ammonium formate and 1% formic acid by volume) were used as mobile phase with the following ramp: 0.6 ml/min flow rate, water:acetonitrile=95:5 from 0.0 to 13.0 min ramping to water:acetonitrile=5:95 from 13.0 to 17.0 min. Total time=17.0 min.\nAll crosslinking reactions were performed in 1.5 mL amber colored glass vials equipped with 0.5 mL glass inserts. A water-soluble peptide (SEQ ID NO: 1: […]) was employed as an internal standard. Although the actual sequence of the internal standard is inconsequential, choice of amino acid residues were critical to avoid interference in the crosslinking assays. […] All reactions and standard solutions were prepared in HEPES (pH 7.4, 1.0 mM MgCl2) buffer.\nPrior to every reaction, a standard curve was obtained for the individual components using a series of standard solutions (an example of standard curve analysis for FKBP12 is shown in Table 3 below). Using the data from standard curve, μmol of protein samples were plotted against the ratio of areas (sample:std) and a linear fit (y=mx+c) was employed to obtain the slope and intercept. The value of slope and intercept involved in these standard curves were accounted for during evaluation of the substrate and product concentration before and during the course of the reaction. For every substrate/product, an initial injection was followed up by a blank injection to verify presence of any residual protein/reagents. Based on this analysis the sequence of auto-sampler can be adjusted to included appropriate number of blank injections for removal of residual components, if any. The MS spectra were analyzed using Agilent MassHunter v B.07.0 software.\nIn a representative experiment to assess the presenter dependency of ligand cross-linking on the target protein, KRASGTP/G12C and either C3- or C4-SLF ligand were incubated in the presence or absence of FKBP12 at concentrations of 2 μM KRAS, 10 μM FKBP12, 10 μM C3- or C4-SLF for 4 hours at room temperature in 12.5 mM HEPES pH 7.4, 75 mM NaCl, 1 mM MgCl2, 3% DMSO. Analysis of the amount of KRAS undergoing disulfide cross-linking with the ligand using the method above."}, "KRASGTP/G12C [2]": {"target": "T3, KRASGTP/G12C", "experiment": "Cross-linking gel shift assay (12% SDS-PAGE), with or without FKBP12", "type": "binding", "conditions": "60 μM KRAS, 180 μM FKBP12, 180 μM ligand, quenched by MMTS", "method": "In parallel to mass spectrometry analysis, cross-linking reactions with C3- or C4-SLF were subjected to gel shift assay using 12% SDS-PAGE in the presence or absence of FKBP12 at the same experimental condition described above except that cross-linking reactions were set up at higher concentrations (60 μM KRAS, 180 μM FKBP12, and 180 μM C3- or C4-SLF) and they were quenched by MMTS to terminate the reaction."}},
  "data": [
    {"smiles": "CCC(C)(C)C(=O)C(=O)N1CCCC[C@H]1C(=O)O[C@H](CCc1ccc(OC)c(OC)c1)c1cccc(NC(=O)CCSSc2ccccn2)c1", "note": "[Compound C3-SLF, (R)-3-(3,4-dimethoxyphenyl)-1-(3-(3-(pyridin-2-yldisulfanyl)propanamido)phenyl)propyl (S)-1-(3,3-dimethyl-2-oxopentanoyl)piperidine-2-carboxylate]", "values": [
      {"measurement": "Buried surface area of ligand", "setting": "FKBP12-PTP1BS187C", "value": 615, "unit": "Å^2"},
      {"measurement": "Formation of PTP1BS187C lite/C3-SLF/FKBP12 complex", "setting": "PTP1BS187C lite/FKBP12", "value": "confirm the formation"},
      {"measurement": "Buried surface area of the complex contributed by ligand", "setting": "MCL1S245C/FKBP52", "value": 606, "unit": "Å2"},
      {"measurement": "% × link to KRAS", "setting": "KRASGTP/G12C [1]; FKBP12 absent (−)", "value": 9.6, "unit": "%"},
      {"measurement": "% × link to KRAS", "setting": "KRASGTP/G12C [1]; FKBP12 present (+) 10 μM", "value": 47.5, "unit": "%"},
      {"measurement": "Ligand cross-linking efficiency in the presence of FKBP12, gel shift", "setting": "KRASGTP/G12C [2]", "value": "boosted significantly"}
    ]}
  ]
}
